Laboratory results from ChEMBL document CHEMBL5727610, “Cardiac glycoside analogs and their use in methods for inhibition of viral infection” (2020).

Experiment: The inhibition of HCMV replication by digitoxin: The effect of digitoxin analogs on HCMV replication was tested. HFFs were infected with pp28-luciferase HCMV and treated with the compounds (Table 2, FIG. 2A). EC50, CC50 and selectivity index (SI) calculated as CC50/EC50 were determined for each compound. […] The compounds with the best SI were α-L rhamnose, α-L amicetose and mannose. Virus yield was determined for selected compounds (FIG. 2B), and a dose dependent effect on virus DNA yield was observed.

SMILES | EC50 [nM]
CC1OC(OC2C(C)OC(OC3C(O)CC(O[C@H]4CC[C@@]5(C)[C@H](CC[C@@H]6[C@@H]5CC[C@]5(C)[C@@H](C7=CC(=O)OC7)CC[C@]65O)C4)OC3C)C(C)C2O)CC(OC2OC(C)[C@H](OC3OC(C)[C@@H](OC4OC(C)[C@@H](O)C(O)[C@@H]4O)C(O)[C@@H]3O)C(O)[C@@H]2O)C1C (some centres not stated) | 233
CC1OC(OC2C(O)CC(OC3C(O)CC(O[C@H]4CC[C@@]5(C)[C@H](CC[C@@H]6[C@@H]5CC[C@]5(C)[C@@H](C7=CC(=O)OC7)CC[C@]65O)C4)OC3C)OC2C)CC(OC2OC(C)[C@@H](OC3OC(C)[C@H](O)C(O)[C@H]3O)C(O)[C@H]2O)C1C (some centres not stated) | 210
CC1OC(OC2C(O)CC(OC3C(O)CC(O[C@H]4CC[C@@]5(C)[C@H](CC[C@@H]6[C@@H]5CC[C@]5(C)[C@@H](C7=CC(=O)OC7)CC[C@]65O)C4)OC3C)OC2C)CC(OC2OC(C)[C@H](OC3OC(C)[C@@H](O)C[C@@H]3O)C[C@@H]2O)C1C (some centres not stated) | 14.8
CC1OC(OC2C(O)CC(OC3C(O)CC(O[C@H]4CC[C@@]5(C)[C@H](CC[C@@H]6[C@@H]5CC[C@]5(C)[C@@H](C7=CC(=O)OC7)CC[C@]65O)C4)OC3C)OC2C)CC(OC2OC(C)[C@H](O)C(O)[C@@H]2O)C1C (some centres not stated) | 4.77
CC1OC(OC2C(C)OC(OC3C(O)CC(O[C@H]4CC[C@@]5(C)[C@H](CC[C@@H]6[C@@H]5CC[C@]5(C)[C@@H](C7=CC(=O)OC7)CC[C@]65O)C4)OC3C)C(C)C2O)CC(OC2OC(C)[C@@H](OC3OC(C)[C@H](OC4OC(C)[C@H](O)C(O)[C@H]4O)C(O)[C@H]3O)C(O)[C@H]2O)C1C (some centres not stated) | 322
CC1OC(OC2C(O)CC(OC3C(O)CC(O[C@H]4CC[C@@]5(C)[C@H](CC[C@@H]6[C@@H]5CC[C@]5(C)[C@@H](C7=CC(=O)OC7)CC[C@]65O)C4)OC3C)OC2C)CC(OC2OC(CO)[C@H](O)C(O)[C@@H]2O)C1C (some centres not stated) | 7.31
CC1OC(OC2C(O)CC(OC3C(O)CC(O[C@H]4CC[C@@]5(C)[C@H](CC[C@@H]6[C@@H]5CC[C@]5(C)[C@@H](C7=CC(=O)OC7)CC[C@]65O)C4)OC3C)OC2C)CC(OC2OC(C)[C@@H](OC3OC(C)[C@H](O)C[C@H]3O)C[C@H]2O)C1C (some centres not stated) | 786
CC1OC(OC2C(O)CC(OC3C(O)CC(O[C@H]4CC[C@@]5(C)[C@H](CC[C@@H]6[C@@H]5CC[C@]5(C)[C@@H](C7=CC(=O)OC7)CC[C@]65O)C4)OC3C)OC2C)CC(OC2OC(C)[C@H](OC3OC(C)[C@@H](O)C(O)[C@@H]3O)C(O)[C@@H]2O)C1C (some centres not stated) | 36.7
CC1OC(OC2C(C)OC(OC3C(O)CC(O[C@H]4CC[C@@]5(C)[C@H](CC[C@@H]6[C@@H]5CC[C@]5(C)[C@@H](C7=CC(=O)OC7)CC[C@]65O)C4)OC3C)C(C)C2O)CC(OC2OC(C)[C@H](OC3OC(C)[C@@H](OC4OC(C)[C@@H](O)C[C@@H]4O)C[C@@H]3O)C[C@@H]2O)C1C (some centres not stated) | 113
CC1OC(OC2C(O)CC(OC3C(O)CC(O[C@H]4CC[C@@]5(C)[C@H](CC[C@@H]6[C@@H]5CC[C@]5(C)[C@@H](C7=CC(=O)OC7)CC[C@]65O)C4)OC3C)OC2C)CC(OC2OC(C)[C@@H](O)C(O)[C@H]2O)C1C (some centres not stated) | 26.6
CC1OC(OC2C(C)OC(OC3C(O)CC(O[C@H]4CC[C@@]5(C)[C@H](CC[C@@H]6[C@@H]5CC[C@]5(C)[C@@H](C7=CC(=O)OC7)CC[C@]65O)C4)OC3C)C(C)C2O)CC(OC2OC(C)[C@@H](OC3OC(C)[C@H](OC4OC(C)[C@H](O)C[C@H]4O)C[C@H]3O)C[C@H]2O)C1C (some centres not stated) | 2080
CC1OC(OC2C(O)CC(OC3C(O)CC(O[C@H]4CC[C@@]5(C)[C@H](CC[C@@H]6[C@@H]5CC[C@]5(C)[C@@H](C7=CC(=O)OC7)CC[C@]65O)C4)OC3C)OC2C)CC(OC2OC(C)[C@@H](O)C[C@H]2O)C1C (some centres not stated) | 37.5
